Measured values: patent US6951848B2, “Functionalized heterocycles as modulators of chemokine receptor function and methods of use therefor” (Millennium Pharmaceuticals, Inc.,, priority 2001, dated 2005)
Structures can show the parent of a compound that is named as a salt.

Target: T1, CCR-5 (Homo sapiens, UniProt P51681)
T1 construct: expressed in transfected cells; host or cells: L1.2 cells (CCR-5/L1.2 transfectants), membranes
Experiment: 125I-gp120/sCD4/CCR-5 receptor binding assay
Settings: membranes from CCR-5/L 1.2 cells, 3 nM sCD4, 0.1 nM 125I-gp120 (HIV-1 JR-FL); read-out: IC50 for inhibition of binding of sCD-4/GP-120 to CCR-5
Experimental: CCR-5 Receptor Binding Assay The compounds of the present invention were evaluated using the following CCR-5 receptor binding assay. The ^125I-gp120/sCD4/CCR-5 binding assay was carried out similarly as described in Wu et al., Nature, 1996;384:179-183. Briefly, the envelope gp120 protein derived from HIV-1 JR-FL (Trkola et al., Nature, 1996;384:184-186), an M-tropic strain, was iodinated using solid phase lactoperoxidase to a specific activity of 20 μCi/μg. For each binding reaction (in a final volume of 100 μL binding buffer [50 mM HEPES, pH 7.5, 1 mM CaCl2, 5 mM MgCl2, and 0.5% BSA]), 25 μL (2.5 μg) of membranes prepared from CCR-5/L 1.2 cells were mixed with 25 μL (3 nM) sCD4, followed by 25 μL (0.1 nM) radio-labeled gp120 in the presence or absence of 25 μL compound dissolved in DMSO (final concentration of DMSO 0.5%). The reactions were incubated at room temperature for 45 to 60 minutes and stopped by transferring the mixture to GFB filter plates, which were then washed 3 to 4 times with binding buffer containing 0.5 M NaCl. The plates were dried and MicroScint scintillation fluid was added before counting. […] The compounds of Examples 56 and 66 had IC50s of about […]. […] Preferred compounds can inhibit the binding of sCD-4/GP-120 to CCR-5 with IC50s of about 10 μM to about 100 μM or about 1 nM to about 10 μM

T1 sequence (P51681 whole entry): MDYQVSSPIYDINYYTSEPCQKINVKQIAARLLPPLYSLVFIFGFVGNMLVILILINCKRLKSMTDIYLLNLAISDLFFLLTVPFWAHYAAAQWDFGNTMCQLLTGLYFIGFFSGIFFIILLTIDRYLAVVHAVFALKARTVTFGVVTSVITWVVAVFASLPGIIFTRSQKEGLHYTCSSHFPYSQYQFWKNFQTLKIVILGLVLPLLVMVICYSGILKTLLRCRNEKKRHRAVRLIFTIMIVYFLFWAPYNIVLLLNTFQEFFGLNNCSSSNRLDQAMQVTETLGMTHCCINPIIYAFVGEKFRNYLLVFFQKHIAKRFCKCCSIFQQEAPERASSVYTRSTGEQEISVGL

IC50 [µM]	Structure (SMILES)
18	Cc1[nH]c2ccc(OCCN3CCC(c4ccccc4)C3)cc2c1C(=O)OCc1ccccc1.Cl (stereo not drawn) [Example 5, 1-[2-(3-benzyloxycarbonyl-2-methyl-1H-indol-5-yloxy)-ethyl]-3-phenyl-pyrrolidinium; Chloride]
18.2	CCN(CC)CCOc1ccc2c(c1)c(C(=O)OCc1ccccc1)c(C)n2Cc1ccccc1 [Example 7, 1-Benzyl-5-(2-diethylamino-ethoxy)-2-methyl-1H-indole-3-carboxylic acid benzyl ester]
17.5	Cc1[nH]c2ccc(NCCN3CCCC3)cc2c1C(=O)OCc1ccccc1 [Example 20, 2-Methyl-5-(2-pyrrolidine-1-yl-ethylamino)-1H-indole-3-carboxylic acid benzyl ester]
~4.8	Cc1[nH]c2ccc(CCN3CCCC3)cc2c1C(=O)OCc1ccccc1.Cl [Example 56, 2-Methyl-5-(2-pyrrolidin-1-yl-ethyl)-1H-indole-3-carboxylic acid benzyl ester hydrochloride]
13.9 ± 1.6	Cc1[nH]c2ccc(CCN(C)C3CCOCC3)cc2c1C(=O)OCc1ccccc1 [Example 62, 2-Methyl-5-{2-[methyl-(tetrahydro-pyran-4-yl)-amino]-ethyl}-1H-indole-3-carboxylic acid benzyl ester]
~4.8	Cc1[nH]c2ccc(OCCN(C)C)cc2c1C(=O)O[C@@H](C)c1ccccc1 [Example 66, 5-(2-Dimethylamino-ethoxy)-2-methyl-1H-indole-3-carboxylic acid (S)-1-phenyl-ethyl ester]
20.3 ± 2.8	Cc1[nH]c2ccc(OCCN3CCCC3)cc2c1C(=O)OCc1ccccc1 [Example 69, 2-Methyl-5-(pyrrolidin-1-yl-ethoxy)-1H-indole-3-carboxylic acid benzyl ester]
5.52 ± 1.1	Cc1[nH]c2ccc(OC(C)C(C)N3CCCC3)cc2c1C(=O)OCc1ccccc1 (stereo not drawn) [Example 70, 2-Methyl-5-(1-methyl-2-pyrrolidin-1-yl-propoxy)-1H-indole-3-carboxylic acid benzyl ester]

System: not given
Experiment: not given
Settings: not given

melting point	Structure (SMILES)
260 to 261 °C	Cc1[nH]c2ccc(CN)cc2c1C(=O)OCc1ccccc1.Cl
95 to 97 °C	CCN(CC)CCc1ccc2[nH]c(C)c(C(=O)O[C@@H](C)c3ccccc3)c2c1.Cl
45 to 55 °C	Cc1[nH]c2ccc(OCCN3CCOCC3)cc2c1C(=O)OC(C)c1ccccc1.Cl (stereo not drawn)
75 to 80 °C	Cc1[nH]c2ccc(OCCN3CCCC3)cc2c1C(=O)OC(C)c1ccccc1.Cl (stereo not drawn)
225 to 229 °C (dec.)	Cc1[nH]c2ccc(OCCN3CCNCC3)cc2c1C(=O)OCc1ccccc1 (as salt: hydrochloride) [Example 2, 1-[2-(3-benzyloxycarbonyl-2-methyl-1H-indole-5-yloxy)-ethyl]-piperazin-1-ium; Chloride]
143 to 145 °C	Cc1[nH]c2ccc(OCCN3CCN(C)CC3)cc2c1C(=O)OCc1ccccc1 [Example 3, 2-Methyl-5-[2-(4-methyl-piperazin-1-yl)-ethoxy]-1H-indole-3-carboxylic acid benzyl ester]
121 to 122 °C	Cc1[nH]c2ccc(OCCN3CCC(C)C3)cc2c1C(=O)OCc1ccccc1 (stereo not drawn) [Example 4, 2-Methyl-5-[2-(3-methyl-pyrrolidin-1-yl)-ethoxy]-1H-indole-3-carboxylic acid benzyl ester]
118 to 121 °C	Cc1[nH]c2ccc(OCCN3CCC(c4ccccc4)C3)cc2c1C(=O)OCc1ccccc1.Cl (stereo not drawn) [Example 5, 1-[2-(3-benzyloxycarbonyl-2-methyl-1H-indol-5-yloxy)-ethyl]-3-phenyl-pyrrolidinium; Chloride]
121 to 123 °C	Cc1[nH]c2ccc(OCCN(C(C)C)C(C)C)cc2c1C(=O)OCc1ccccc1 [Example 6, 5-(2-Diisopropylamino-ethoxy)-2-methyl-1H-indole-3-carboxylic acid benzyl ester]
74 to 76 °C	CCN(CC)CCOc1ccc2c(c1)c(C(=O)OCc1ccccc1)c(C)n2Cc1ccccc1 [Example 7, 1-Benzyl-5-(2-diethylamino-ethoxy)-2-methyl-1H-indole-3-carboxylic acid benzyl ester]
73 to 74 °C	CCN(CC)CCOc1ccc2c(c1)c(C(=O)OCc1ccccc1)c(C)n2C [Example 8, 1-Methyl-5-(2-diethylamino-ethoxy)-2-methyl-1H-indole-3-carboxylic acid benzyl ester]
129 to 131 °C	CCC(Oc1ccc2[nH]c(C)c(C(=O)OCc3ccccc3)c2c1)C(=O)N(CC)CC (stereo not drawn) [Example 9, 5-(1-Diethylcarbamoyl-propoxy)-2-methyl-1H-indole-3-carboxylic acid benzyl ester]
141 to 142 °C	Cc1[nH]c2ccc(OCCN3CCCCCC3)cc2c1C(=O)OCc1ccccc1 [Example 11, 5-(2-Azepan-1-yl-ethoxy)-2-methyl-1H-indole-3-carboxylic acid benzyl ester]
140 to 141 °C	Cc1[nH]c2ccc(OCCN3CCCCC3)cc2c1C(=O)OCc1ccccc1 [Example 12, 2-Methyl-5-(2-piperidin-1-yl-ethoxy)-1H-indole-3-carboxylic acid benzyl ester]
125 to 126 °C	CCN(CC)CCOc1ccc2[nH]c(C)c(C(=O)OCc3ccccc3)c2c1 [Example 13, 5-(2-Diethylamino-ethoxy)-2-methyl-1H-indole-3-carboxylic acid benzyl ester]
181 to 182 °C	Cc1[nH]c2ccc(OCCN3CC(C)(C)C(C)(C)C3)cc2c1C(=O)OCc1ccccc1 [Example 14, 2-Methyl-5-[2-(3,3,4,4-tetramethyl-pyrrolidin-1-yl)-ethoxy]-1H-indole-3-carboxylic acid benzyl ester]

melting point	Structure (SMILES)
141 to 142 °C	Cc1[nH]c2ccc(OCCN3CCCC3c3ccccc3)cc2c1C(=O)OCc1ccccc1 (stereo not drawn) [Example 15, 2-Methyl-5-[2-(2-phenyl-pyrrolidin-1-yl)-ethoxy]-1H -indole-3-carboxylic acid benzyl ester]
126 to 127 °C	Cc1[nH]c2ccc(OCCN3CC[C@H](CO)C3)cc2c1C(=O)OCc1ccccc1 [Example 16, 5-[2-((S)-3-Hydroxymethyl-pyrrolidin-1-yl)-ethoxy]-2-methyl-1H -indole-3-carboxylic acid benzyl ester]
126 to 127 °C	Cc1[nH]c2ccc(OCCN3CCCC3c3cccnc3)cc2c1C(=O)OCc1ccccc1 (stereo not drawn) [Example 17, 2-Methyl-5-[2-(2-pyridin-3-yl-pyrrolidin-1-yl)-ethoxy]-1H-indole-3-carboxylic acid benzyl ester]
123 to 125 °C	CCCN(CCC)CCOc1ccc2[nH]c(C)c(C(=O)OCc3ccccc3)c2c1 [Example 18, 5-(2-Dipropylamino-ethoxy)-2-methyl-1H-indole-3-carboxylic acid benzyl ester]
76 to 78 °C	Cc1[nH]c2ccc(CCN3CCCC3)cc2c1C(=O)OCc1ccccc1.Cl [Example 56, 2-Methyl-5-(2-pyrrolidin-1-yl-ethyl)-1H-indole-3-carboxylic acid benzyl ester hydrochloride]
167 to 168 °C	Cc1[nH]c2ccc(CCN3CCN(C)CC3)cc2c1C(=O)OCc1ccccc1 [Example 57, 2-Methyl-5-[2-(4-methyl-piperazin-1-yl)-ethyl]-1H-indole-3-carboxylic acid benzyl ester]
122 to 124 °C	Cc1[nH]c2ccc(CCN(C)C3CCCCC3)cc2c1C(=O)OCc1ccccc1 [Example 58, 5-[2-(Cyclohexyl-methyl-amino)-ethyl]-2-methyl-1H-indole-3-carboxylic acid benzyl ester]
159 to 161 °C	Cc1[nH]c2ccc(CCN3CCCCC3)cc2c1C(=O)OCc1ccccc1 [Example 59, 2-Methyl-5-(2-piperidin-1-yl-ethyl)-1H-indole-3-carboxylic acid benzyl ester]
134 to 135 °C	Cc1[nH]c2ccc(CCN(CC(C)C)CC(C)C)cc2c1C(=O)OCc1ccccc1 [Example 60, 5-(2-Diisobutylamino-ethyl)-2-methyl-1H-indole-3-carboxylic acid benzyl ester]
65 to 68 °C	CNCCc1ccc2[nH]c(C)c(C(=O)OCc3ccccc3)c2c1 [Example 61, 2-Methyl-5-(2-methylamino-ethyl)-1H-indole-3-carboxylic acid benzyl ester]
109 to 111 °C	Cc1[nH]c2ccc(CCN(C)C3CCOCC3)cc2c1C(=O)OCc1ccccc1 [Example 62, 2-Methyl-5-{2-[methyl-(tetrahydro-pyran-4-yl)-amino]-ethyl}-1H-indole-3-carboxylic acid benzyl ester]
106 to 108 °C	CCN(CC)Cc1ccc2[nH]c(C)c(C(=O)OCc3ccccc3)c2c1 [Example 64, 5-Diethylaminomethyl-2-methyl-1H-indole-3-carboxylic acid benzyl ester]
135 to 140 °C	Cc1[nH]c2ccc(OCCN(C)C)cc2c1C(=O)O[C@@H](C)c1ccccc1 [Example 66, 5-(2-Dimethylamino-ethoxy)-2-methyl-1H-indole-3-carboxylic acid (S)-1-phenyl-ethyl ester]
110 to 116 °C	Cc1[nH]c2ccc(OCCN3CCCC3)cc2c1C(=O)OCc1ccccc1 [Example 69, 2-Methyl-5-(pyrrolidin-1-yl-ethoxy)-1H-indole-3-carboxylic acid benzyl ester]
94 to 98 °C	Cc1[nH]c2ccc(OC(C)C(C)N3CCCC3)cc2c1C(=O)OCc1ccccc1 (stereo not drawn) [Example 70, 2-Methyl-5-(1-methyl-2-pyrrolidin-1-yl-propoxy)-1H-indole-3-carboxylic acid benzyl ester]
97 to 100 °C	Cc1[nH]c2ccc(CCNC3CCCCC3)cc2c1C(=O)OCc1ccccc1 [Example 71, 5-(2-Cyclohexylamino-ethyl)-2-methyl-1H-indole-3-carboxylic acid benzyl ester]

Structure (SMILES)	melting point
Cc1[nH]c2ccc(OCCN3CCN(C(=O)OC(C)(C)C)CC3)cc2c1C(=O)OCc1ccccc1 [Example 1, 5-[2-(4-tert-Butoxycarbonyl-piperazin-1-yl)-ethoxy]-2-methyl-1H-indole-3-carboxylic acid benzyl ester]	136 to 137 °C
Cc1[nH]c2ccc(OCCCCN3CCCC3)cc2c1C(=O)OCc1ccccc1 [Example 10, 2-Methyl-5-(4-pyrrolidin-1-yl-butoxy)-1H-indole-3-carboxylic acid benzyl ester]	152 to 155 °C
